Assay: Clinical study: gastric juice pH after irrigation
Assay type: in vivo
Conditions: patients; acetylcysteine (12 mg/ml) solution irrigation of gastric mucosa after two tablets of sublingual Takepron
Procedure: Ten patients having H. pylori infection without prior eradication therapy were enrolled. Before the intraluminal therapy, two tablets of proton pump inhibitor (Takepron) were sublingually administered to the patient. Using the system of the invention, the gastric mucosa was irrigated with acetylcysteine (12 mg/ml) solution to remove the acid and mucous on the gastric mucosa. The pH levels before and after irrigation were measured. The acidity of the gastric juice could be well controlled at around pH 5.0 after irrigation. The total dosage of acetylcysteine was less than 140 mg/kg. Then amoxicillin, metronidazole, clarithromycin, sucrate gel and distilled water were mixed to form a complex. […] The viscosities of the complexes were shown below.

With `CC(=O)N[C@@H](CS)C(=O)O` [acetylcysteine] the “pH of gastric juice after irrigation” value was ~5.0 pH.

From US11110209B2, “Intraluminal therapy system for gastrointestinal infections” (MACKAY MEDICAL FOUNDATION THE PRESBYTERIAN CHURCH IN TAIWAN …, priority 2017, dated 2021)
